Patent EP0655460B1, “Pharmacotherapeutical use of glutathione derivatives” (Ohlenschläger, Gerhard, Dr. med., priority 1987, dated 1989)
Read-outs that look alike come from different tables or passages of the source.

Key:
[1] = cited from earlier work
[2] = cited from earlier work; remark: listed apart in the source
[3] = tested on: Redoxstatus des Blutes; settings: human venous blood, 600 mg langsam intravenös, 10 Minuten after application, after load, n = 50, mean ± SD
Protocol: 2.2) Selbstversuch am Menschen zur Verbesserung und/oder zur Normalisierung des Redorstatus des Blutes:
Im menschlichen Venenblut wurden nach definierter Sauerstoff-Mangel-Belastung die gleichen Parameter bestimmt wie im vorstehend gegchilderten Versuch. Insgesamt wurden 50 Versuche an verschiedenen Tagen durchgeführt.
Danach wurde-reduziertes Glutathion in einer Dosis von 600 mg langsam intravenös verabreicht.
Randbedingungen: Temperatur 20°C, Luftdruck 758 - 770 mm Hg.

[4] = Toxicity of the therapeutic dosage in small animals; format: in vivo; settings: small animals such as Graumäusen, Wistar-Ratten und Kaninchen; therapeutic dosage (2 - 5 mg/kg for man)
Protocol: Die therapeutische Dosierung, die sich im Tierversuch an Kleintieren wie Graumäusen, Wistar-Ratten und Kaninchen als untoxisch erwiesen hat, liegt für den Menschen in einem Bereich von 2 - 5 mg/kg Körpergewicht für eine Einzeldosis bei langsamer intravenöser Injektion, wobei das Injektionsvolumen 5 ml beträgt mit einem Gehalt an reduziertem Glutathion von 150 mg.

[5] = tested on: Redoxstatus des Blutes; settings: Kaninchen, Ohrvenenblut, 10 mg/kg intravenös, 5 - 10 Minuten after application, after load, n = 30, mean ± SD
Protocol: Bei 5 verschiedenen Kaninchen wurden in 30 Versuchen im venösen Blut folgende Parameter nach der Methode und mit dem gerät VINCENT gemessen: • Ohm'scher Widerstand: r • Redoxpotential EH bzw. Elektronenpotential: rH2 • pH-Wert: pH.
Die Werte wurden im Ohrvenenblut nach definierter Sauerstoffmangel-Belastung gemessen.
Danach wurde den Tieren reduziertes Glutathion in einer Dosis von 10 mg/kg Körpergewicht intravenös verabreicht.
5 - 10 Minuten nach der Applikation von reduziertem Glutathion wurden folgende Werte ermittelt:
Randbedingungen: Temperatur 20°C, Luftdruck 767 mm Hg.

[6] = target: Glutathion-Reduktase (Homo sapiens, UniProt P00390); settings: same conditions as 1.1 (0,5 mg, 37°C, 30 Minuten); n = 22, mean ± SD; Leerwert 9,5 ± 0,8
Protocol: (§1) Von 20 Patienten mit unterschiedlichen Erkrankungen wurden jeweils 10 ml menschlichen Venenblutes entnommen und dessen Gerinnungsfähigkeit durch Zusatz von Heparin aufgehoben. Als Parameter für die optimale Erythrozytenfunktion wurde vor und nach der Inkubation mit 0,5 mg reduziertem Glutathion bei 37°C während eines Zeitraumes von 30 Minuten der Gehalt an intraerythrozytärem reduziertem Glutathion bestimmt.
(§2) 1.2) In-vitro-Versuch an Zellensystemen menschlicher Erythrozyten:
(§3) Unter denselben Bedingungen wie bei vorstehend beschriebenem Versuch wurden die Enzyme Glukose-6-Phosphat-Dehydrogenase und Glutathion-Reduktase aus Erythrozyten von 22 Patienten in vitro untersucht.

[7] = tested on: Glukose-6-Phosphat-Dehydrogenase; settings: same conditions as 1.1 (0,5 mg, 37°C, 30 Minuten); n = 22, mean ± SD; Leerwert 148 ± 22
Protocol: as §1, §2, §3

[8] = cited from earlier work; remark: listed apart in the source
[9] = tested on: malignen Melanoms vom Menschen; settings: 300 mg three times weekly
Protocol: 2.4) Versuch an 40 gesunden Graumäusen nach Transplantation eines malignen Melanoms vom Menschen.
40 gesunden Graumäusen wurden je 10^6 maligne Melanomzellen überimpft.
30 Tiere wurden vom Beginn der Versuchsreihe an drei mal wöchentlich mit je 300 mg reduziertem Glutathion behandelt.

[10] = tested on: malignen Melanoms vom Menschen; settings: 4 mice, 10^6 melanoma cells, 250 mg three times weekly
Excerpt: 2.3) Versuch an 8 gesunden Graumäusen nach Transplantation eines malignen Melanoms vom Menschen.
In Fig. 1 ist das Wachstum des Tumors in Abhängigkeit von der Zeit dargestellt.

[11] = 30 treated mice, 10^6 melanoma cells

Chain of Glutathion-Reduktase (P00390 44-522): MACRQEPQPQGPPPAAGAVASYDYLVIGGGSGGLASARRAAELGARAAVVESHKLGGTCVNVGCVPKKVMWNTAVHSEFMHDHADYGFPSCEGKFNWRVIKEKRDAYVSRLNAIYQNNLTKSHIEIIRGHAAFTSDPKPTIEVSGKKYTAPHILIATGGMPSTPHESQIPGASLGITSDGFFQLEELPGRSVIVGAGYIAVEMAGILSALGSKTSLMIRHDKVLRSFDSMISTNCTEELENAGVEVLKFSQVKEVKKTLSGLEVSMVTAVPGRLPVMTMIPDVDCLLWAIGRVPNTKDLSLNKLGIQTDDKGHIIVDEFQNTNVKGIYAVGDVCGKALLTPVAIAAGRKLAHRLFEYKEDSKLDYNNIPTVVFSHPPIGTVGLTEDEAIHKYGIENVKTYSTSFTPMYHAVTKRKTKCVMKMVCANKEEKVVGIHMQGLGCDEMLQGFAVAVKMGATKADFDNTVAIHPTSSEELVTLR

Compound: N[C@@H](CCC(=O)N[C@@H](CS)C(=O)NCC(=O)O)C(=O)O [reduziertes Glutathion, gamma-Glutamyl-cysteinyl-glycin]
- pK-Wert COOH(1) ([1]; COOH(1)): 3,53
- pK-Wert COOH(2) ([1]; COOH(2)): 2,12
- pK-Wert NH3 ^+ ([1]; NH3 ^+): 8,66
- pK-Wert SH ([1]; SH): 9,66
- Löslichkeit in Wasser ([2]; Wasser): leicht löslich
- Löslichkeit in physiologischer Kochsalzlösung ([2]; physiologischer Kochsalzlösung): leicht löslich
- Löslichkeit in Äthanol ([2]; Äthanol): löslich
- pH-Wert ([3]; without: 7,41 ± 0,18): pH = 7,23 ± 0,11
- Ohm'scher Widerstand r ([3]; without: 197 ± 14,5): r = 204 ± 12,3 Ohm/cm^3
- Toxizität der therapeutischen Dosierung im Tierversuch [4]: untoxisch
- pH-Wert ([5]; without: 7,38 ± 0,21): pH = 7,15 ± 0,16
- Ohm'scher Widerstand r ([5]; without: 199 ± 12): r = 202 ± 14 Ohm/cm^3
- Glutathion-Reduktase, Werte nach Inkubation [6]: 11,3 ± 1,2 U/ 10^11 Erys.
- Glukose-6-Phosphat-Dehydrogenase, Werte nach Inkubation [7]: 179 ± 16 mU/ 10^9 Erys.
- biologische Halbwertszeit in der Augenlinse ([8]; human tissue: Augenlinse): ca. 30 Std.
- biologische Halbwertszeit im Erythrozyten ([8]; human tissue: Erythrozyten): ca. 100 Std.
- biologische Halbwertszeit im Gehirn ([8]; human tissue: Gehirn): ca. 70 Std.
- biologische Halbwertszeit in der Leber ([8]; human tissue: Leber): ca. 4 Std.
- weitere gestorbene Tiere innerhalb 20 Tagen [9, 11]: fünf
- weitere gestorbene Tiere innerhalb 30 Tagen [9, 11]: sieben
- gestorbene Tiere innerhalb 15 Tagen ([9]; 30 treated mice, 10^6 melanoma cells, controls died within 8 - 12 Tagen): drei
- Anteil überlebender behandelter Tiere, 30 Tage Beobachtungszeitraum ([9]; of 30 treated mice): 50%
- überlebende Tiere, 30 Tage Beobachtungszeitraum ([9]; of 30 treated mice): 15 Tiere
- Überleben ([10]; controls died within 8 - 14 Tagen): überlebten bis zur siebten Woche
- Tumorwachstum ([10]; versus untreated controls): deutlich langsameres Tumorwachstum
